Measured values as given in the NIST ThermoML archive (doi:10.1016/j.tca.2017.03.024).
± gives the expanded uncertainty stated by the source.

Settings: Crystal; DTA

Row | Normal melting temperature | SMILES
1 | 772 ± 1 °C | [Cl-].[K+] [potassium chloride]
2 | 605 ± 1 °C | [Cl-].[Li+] [lithium chloride]
3 | 778 ± 1 °C | [Cl][Pr]([Cl])[Cl] [praseodymium(III) chloride]
